Data from patent US20040127518A1, “Modulation of anxiety through blockade of anandamide hydrolysis” (priority 2002, published 2004).

Assays:
[1] = molecular target: T1, rat brain monoglyceride lipase (MGL) (Rattus norvegicus, UniProt Q8R431); assay: Cytosol MGL activity, 2-mono-oleoyl-glycerol as substrate
T1 sequence (Q8R431 1-303): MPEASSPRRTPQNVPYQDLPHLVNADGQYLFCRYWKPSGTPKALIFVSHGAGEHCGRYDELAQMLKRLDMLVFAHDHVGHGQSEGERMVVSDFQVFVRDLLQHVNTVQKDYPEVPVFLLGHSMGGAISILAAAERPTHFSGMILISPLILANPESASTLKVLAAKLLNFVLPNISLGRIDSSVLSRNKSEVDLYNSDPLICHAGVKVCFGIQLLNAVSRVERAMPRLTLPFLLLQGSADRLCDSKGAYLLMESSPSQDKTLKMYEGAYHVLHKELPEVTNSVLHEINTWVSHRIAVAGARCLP
From the text: We prepared cell fractions from rat brain homogenates, and assayed membrane FAAH activity and cytosol MGL activity using anandamide [ethanolamine-3H] (American Radiolabeled Chemicals, ARC (St. Louis Mo.), 60 Ci/mmol) and 2-mono-oleoyl-glycerol-[glycerol-1,2,3^−3H] (ARC, St. Louis Mo., 20 Ci/mmol), respectively, as substrates (Dinh, T. Proc. Natl. Acad. Sci. U.S.A. (2002)). We conducted [^3H]anandamide transport assays in human astrocytoma cells (Piomelli, D. et al., Proc. Natl. Acad. Sci. U.S.A., 96, 5802-5807 (1999)); CB1 and CB2 binding assays in rat cerebellar membranes and CB2-overexpressing Chinese hamster ovary cells (Receptor Biology-Perkin Elmer, Wellesley, Mass.), respectively, using [^3H]WIN-55212-2 (NEN-Dupont, Boston, Mass., 40-60 Ci/mmol) as a ligand (Devane, W. A. et al. Science, 258, 1946-1949 (1992)); cholinesterase assays with a commercial kit (Sigma, St. Louis, Mo.), using purified enzymes (electric eel acetylcholinesterase type V-S and horse serum cholinesterase; both from Sigma, St. Louis, Mo.) and following manufacturer's instructions.

[2] = tested on: rat cortical neurons; assay: Transport, accumulation and release of non-metabolized [3H]anandamide in cortical neurons; type: cell-based

Question: Which results are given for `CCCCNC(=O)Oc1ccc(OCc2ccccc2)cc1` [UCM532, n-Butylcarbamic acid 4-benzyloxyphenyl ester]?
Answer: effect on MGL activity (in words) [1]: did not affect; MGL SI (maximal concentration tested/IC50 for FAAH) ([1]; Table 2): ≧100; MGL: maximal concentration of FAAH inhibitor tested ([1]; Table 2): >30 µM; accumulation of non-metabolized [3H]anandamide in neurons ([2]; 4-min incubation, UCM532 3 μM, UCM597 10 nM, AM404 10 μM): promote accumulation; carrier-mediated uptake of [3H]anandamide ([2]; rat cortical neurons): without reducing
